In patent US5053070A, “Pyrimidine derivatives, preparation processes thereof, herbicide containing the same, and herbicidal compositions containing the same along with other active ingredient” (Mitsui Toatsu Chemicals, Incorporated, priority 1988, dated 1991):

Experiments:
johnsongrass = experiment: Upland foliar application test by mixed formulations, concentration gradient (Test 8); assay type: in vivo; conditions: Sorghum halepense, 960 h, applied alone, 40th day, read-out: Herbicidal effects Johnsongrass Ea; for pest or weed control at 100 g/ha: 1 g/a; for pest or weed control at 200 g/ha: 2 g/a
Description: (§1) Resin-made 1/10,000-are pots were filled with the soil of an upland field. Redroot pigweed and johnsongrass were separately seeded and were allowed to germinate in a green house. When each plant grew to the stage of 2-3 leaves, emulsions formulated with concentration gradient from predetermined amounts of two test compounds of different kinds in a similar manner to the method described in Formulation Example 16 was diluted with water to a predetermined dilution rate and then sprayed at an application rate equal to 5 l per are onto the foliage of each plant by means of a pressure-operated ULV (ultra low volume) sprayer. Influence to the weeds were observed on the 40th day after the spray of the herbicides. The results are shown in Table 9, In the table, Ea have the same meanings as in Test 7, and Ea>Ec indicates the existence of synergistic action while Ea<Ec indicates the existence of antagonistic action.

redroot pigweed = experiment: as above; assay type: in vivo; conditions: Amaranthus retroflexus, 960 h, applied alone, 40th day, read-out: Herbicidal effects Redrood pigweed Ea; for pest or weed control at 100 g/ha: 1 g/a; for pest or weed control at 200 g/ha: 2 g/a
Description: as §1

Row | Compound | pest or weed control at 100 g/ha (johnsongrass) [%] | pest or weed control at 200 g/ha (johnsongrass) [%] | pest or weed control at 100 g/ha (redroot pigweed) [%] | pest or weed control at 200 g/ha (redroot pigweed) [%]
1 | COc1cc(OC)nc(Oc2ccccc2C=NOCC=C(C)C)n1 [Compound No. 7] | 10 | 20 | 10 | 50
2 | COc1cc(OC)nc(Oc2ccccc2C=NOCC=Cc2ccccc2)n1 [Compound No. 9] | 10 | 20 | 10 | 30
3 | C#CCON=Cc1ccccc1Oc1nc(OC)cc(OC)n1 [Compound No. 13, 0-(2-propynyl)-2-(4,6-dimethoxy-2-pyrimidinyloxy)benzaldoxime] | 30 | 50 | 20 | 40
4 | COc1cc(OC)nc(Oc2ccccc2C=NOCC=Cc2ccccc2C)n1 [Compound No. 39] | 10 | 20 | 10 | 30
